What follows are molecules tested on exon 10 of the human tau gene (assay: High-throughput small molecule screen with two-color fluorescent (GFP/RFP) splicing reporter in stable cell line). Conditions: not given.
Format: cell-based
Text: Exon 10 of the human tau gene (SEQ ID NO:9; see also, GenBank Accession No. AF027494) containing short stretches (about 50-100 nucleotides) of each of the flanking introns (i.e., intronic sequences from introns 9 and 10; see, e.g., Wang et al., J. Neurochem., 88:1078-1090 (2004)) was cloned into the EcoRI and BamHI restriction sites of the reporter intron (SEQ ID NO:2), which interrupts the start codon of the GFP open reading frame. The clone was linearized using DraIII and transfected into adherent mammalian cells.
In particular, the background was calculated by measuring the fluorescence of each channel after excitation with shorter wavelengths than the optimal for the reporter proteins. This measurement was corrected using data from non-reporter cells before being subtracted from the reporter-expressing cells as background. The following formulas describe the background subtraction procedure: […]
The two-color fluorescent reporter constructs described above carrying exon 10 of the human tau gene were used in high-throughput small molecule screens of a library of enzyme inhibitors (FIG. 6A) and a library of FDA approved drugs (FIG. 6B). The stable cell line was plated at density of 5000 cells per well in 384-well plates. HEK 293 cells to be used as the non-fluorescent control for background subtraction were plated in separate plates at the same density. Each library was applied to the plates and the cells were incubated for 16 hours. The media was removed and the cells were lysed in RIPA buffer (1% Nonidet P-40, 1% sodium deoxycholate, 0.1% SDS, 150 mM NaCl, 10 mM sodium phosphate (pH 7.2), 2 mM EDTA, 50 mM NaF, 5 mM beta-glycerophosphate). The fluorescence intensities were measured using an Analyst AD plate reader. The background was subtracted as described above and the logarithm at base 2 was calculated for the ratio of RFP to GFP fluorescence intensities (log-ratio) and the product of the GFP and RFP fluorescence intensities (log-expression) for each data point. The log-ratios were normalized by Lowess regression using the log-expression as an independent variable.

Point of comparison: N#CC(=C(/N)Sc1ccccc1N)/C(C#N)=C(\N)Sc1ccccc1N [Compound U-0126], Log-ratio 0.44. Against it:
- CN(C)C(=O)C(CCN1CCC(O)(c2ccc(Cl)cc2)CC1)(c1ccccc1)c1ccccc1 [LOPERAMIDE] — higher, 0.72

Same assay, conditions: log2 of RFP/GFP fluorescence, background subtracted, Lowess normalized; enzyme inhibitor library; 16 hours incubation; DMSO control −0.21

Point of comparison: NCCNS(=O)(=O)c1cccc2cnccc12 [Compound H-9], Log-ratio 0.61. Against it:
- CC(C)COCC(CN(Cc1ccccc1)c1ccccc1)N1CCCC1 (stereo not drawn) [BEPRIDIL] — within 0.2 log units, 0.74
- Nc1ncnc2c1c(I)cn2[C@@H]1O[C@H](CO)[C@@H](O)[C@H]1O [5-IODOTUBERCIDIN] — lower, −1.03
- CN(CCc1ccc(Cl)c(Cl)c1)CC(O)COc1ccc(NS(C)(=O)=O)cc1 (stereo not drawn) [AM 92016] — within 0.2 log units, 0.44
- CC(C)(C)c1cc(/C=C(\C#N)C(N)=S)cc(C(C)(C)C)c1O [AG-879] — higher, 1.59
- O=c1cc(N2CCOCC2)oc2c(-c3ccccc3)cccc12 [LY 294002] — higher, 0.85
- COC(=O)C1=C(C)NC(C)=C(C(=O)OCCN(C)Cc2ccccc2)C1c1cccc([N+](=O)[O-])c1 (stereo not drawn) [NICARDIPINE] — within 0.2 log units, 0.68
- O=S(=O)(c1cccc2c(I)cccc12)N1CCCNCC1 [ML-7] — within 0.2 log units, 0.72
- O=S(=O)(c1cccc2c(Cl)cccc12)N1CCCNCC1 [ML-9] — within 0.2 log units, 0.52
- CCCCC/C=C\C/C=C\C/C=C\C/C=C\CCCC(=O)N[C@@H](C)C(=O)O [Arachidonoyl alanine] — lower, 0.38
- CC(=O)c1c(O)c(C)c(O)c(Cc2c(O)c3c(c(C(=O)/C=C/c4ccccc4)c2O)OC(C)(C)C=C3)c1O [ROTTLERIN] — higher, 1.27
- Cc1cc(O)c2c(=O)c3c(O)cc(O)c4c5c(O)cc(O)c6c(=O)c7c(O)cc(C)c8c1c2c(c34)c(c78)c65 [HYPERICIN] — higher, 1.14
- C=C(C)[C@H]1O[C@H]2CC[C@@]3(C)[C@@](O)(CC[C@H]4[C@@H]5OC(C)(C)[C@H]6C[C@@H]7C(=C)Cc8c(Cl)cc9[nH]c(c5c9c8[C@@]76O)[C@@]43C)[C@@]23O[C@H]3[C@H]1O [PENITREM A] — within 0.2 log units, 0.56
- C=C[C@H]1C[N@@]2CC[C@H]1C[C@H]2[C@H](O)c1ccnc2ccc(OC)cc12 [QUININE] — within 0.2 log units, 0.43
- O=c1[nH]c2ccccc2n1C1CCN(CCCC(c2ccc(F)cc2)c2ccc(F)cc2)CC1 [PIMOZIDE] — within 0.2 log units, 0.69
- COC[C@H]1OC(=O)c2coc3c2[C@@]1(C)C1=C(C3=O)[C@@H]2CCC(=O)[C@@]2(C)C[C@H]1OC(C)=O [WORTMANNIN] — higher, 1.37
- CCCCCCCCCCCCCCCC(=O)OC(CC(=O)O)C[N+](C)(C)C.[Cl-] (racemic) [PALMITOYL-DL-CARNITINE CI] — the same, 0.61
- CCCCc1oc2ccccc2c1C(=O)c1cc(I)c(OCCN(CC)CC)c(I)c1 [AMIODARONE] — within 0.2 log units, 0.63
- Oc1ccc(-c2nc(-c3ccncc3)c(-c3ccc(F)cc3)[nH]2)cc1 [SB-202190] — within 0.2 log units, 0.46
- CCCCC/C=C\C/C=C\C/C=C\CCCCCCC(=O)NCC(=O)O [Dihomo-gamma-linolenoyl glycine] — within 0.2 log units, 0.49
- CC(C)(C)c1cc(C=C(C#N)C#N)cc(C(C)(C)C)c1O [TYRPHOSTIN 9] — higher, 1.69
- CC1(C(=O)O)C2CCC(O2)C1(C)C(=O)O (stereo not drawn) [CANTHARIDIC ACID] — lower, −1.72
- COc1ccc(S(=O)(=O)N(CCO)c2ccccc2CN(C)C/C=C/c2ccc(Cl)cc2)cc1 [KN-93] — within 0.2 log units, 0.75
- N#C/C(=C\c1ccc(O)c(O)c1)C(N)=S [TYRPHOSTIN 47] — within 0.2 log units, 0.48
- N/C(=N\C(=O)c1nc(Cl)c(N)nc1N)NCc1ccc(Cl)c(Cl)c1 [DICHLOROBENZAMIL] — higher, 1.75

Source: patent US8580511B2, “Two-color fluorescent reporter for alternative pre-mRNA splicing” (The Regents of the University of California, priority 2006, dated 2013)
